# Assay results from patent US12171821B2, “Toxoplasma gondii vaccine” (priority 2018, dated 2024).
# Several values for one entry are separate records, joined by “and”; a condition that tells them apart may be missing. Equal entries are not always repeated.
# System: T. gondii ME49 bradyzoites
# Test: qPCR of SAG1, GRA11B, TUB1A on cDNA of infected cat intestinal monolayers
# Format: cell-based, Toxoplasma gondii
# Protocol: FIGS. 6A-B. Quantification of merozoites in cat tissue culture. A) Cat intestinal organoids were disassociated by trypsin then grown as monolayers on glass slides. Slides were divided into three different groups: not supplemented with fatty acid, supplemented with 200 μM oleic acid or supplemented 200 μM linoleic acid. Monolayers were infected with T. gondii MEM bradyzoites purified from brains of chronic infected mice at a 1:10 MOI. Five days after infection, staining for GRA11B and BRP1 along with DAPI, allowed the percentage of vacuoles positive for GRA11B and BRP1out of the total vacuoles was determined. Total number of parasitophorous vacuoles were counted by positive DAPI staining and confirmed by morphology with DIC. At least 50 parasitophorous vacuoles were counted per replicate. Three biological replicates were counted and on average 35% of the total vacuoles were positive far both GRA11B and BRP1 in the linoleic acid supplemented monolayers. *p-value=0.0126 with N=3 by two-tailed unpaired t test. Straining for both BRP1 and GRA11B was used to ensure that merozoite stages were counted. […] BRP1 is a rhoptry protein that was initially found in bradyzoites; however, it is also expressed in merozoite. B) Cat intestinal monolayers were grown as described in panel A, except monolayers were quenched by TRIzol 5 days post-infection, RNA was extracted, and cDNA was synthesized using an oligo (dT) primer to amplify mRNA, Expression of SAG1 and GRA11B were quantified by qPCR and the fold change calculated in comparison with uninfected cells. TUB1A was used to normalize gene expression across samples.
# Real-time PCR on ileum cDNA. Z-DNA binding protein deletion mice ice with and without delta-6-desaturase inhibitor treatment were euthanized 7 days post infection. The ileum of each mouse was removed and homogenized in 1 mL of TRIzol. Total RNA was isolated according to manufacturer's protocol (Invitrogen) and treated with amplification grade Dnase I. cDNA was generated using the Invitrogen SuperScript III First-Strand Synthesis kit with random hexamer primers. GRA11B and SAG1 were used as markers of sexual and asexual stages, respectively. The T. gondii housekeeping gene TUB1A was used to normalize target gene expression. Real-time quantitative PCR was performed using Bio-Rad iTaq Universal SYBR Green Supermix on 311 an Applied Biosystems StepOnePlus Real-Time PCR system. The efficiency of each primer set was calculated from the slope of a 1:10 dilution standard curve of tachyzoite gDNA, where E=10^(−1/slope). The Pfaffl method (Pfaffl, 2001), which accounts for differences in efficiencies, was then used to calculate the relative gene expression of GRA11B and SAG1 per sample, in triplicate. Only wells with one melt curve temperature were used, indicating a single product. Primer sequences were as follows: […]
# [1] = cat intestinal monolayers cDNA, biological replicates 1 and 2
# [2] = cat intestinal monolayers cDNA, biological replicates 1 and 2, wells 1-3
smiles,measurement,setting,value
CCCCC/C=C\C/C=C\CCCCCCCC(=O)O [linoleic acid],GRA11B Ct mean,[1],26.44 and 27.75
same,SAG1 Ct mean,[1],19.15 and 19.99
same,GRA11B raw Ct values,[2],26.53 and 27.67 and 26.34 and 27.82 and 26.44 and 27.77
same,SAG1 raw Ct values,[2],19.09 and 20.09 and 19.19 and 19.93 and 19.16 and 19.95
same,"GRA11B expression by qPCR (fold change versus uninfected cells, normalized to TUB1A)","cat intestinal monolayers, 200 μM, 5 days post-infection",significantly more abundant
